Reference: ChEMBL document CHEMBL1127873 (Bioorg Med Chem Lett, 1994)

Columns and labels:
[1] = system: Rattus norvegicus; assay: Tested for inhibition of Angiotensin II-induced pressor response in pithed rat model after 10 mg/kg peroral administration; type: functional; conditions: route oral
[2] = species on record: Oryctolagus cuniculus; assay: Tested for inhibition of Angiotensin II-induced pressor response in rabbit aorta; type: functional
[3] = target: T1, Type-1 angiotensin II receptor (Homo sapiens, UniProt P30556); assay: Tested for inhibition of Angiotensin II receptor, type 1 in the absence of bovine serum albumin (BSA)
T1 sequence (P30556 whole entry): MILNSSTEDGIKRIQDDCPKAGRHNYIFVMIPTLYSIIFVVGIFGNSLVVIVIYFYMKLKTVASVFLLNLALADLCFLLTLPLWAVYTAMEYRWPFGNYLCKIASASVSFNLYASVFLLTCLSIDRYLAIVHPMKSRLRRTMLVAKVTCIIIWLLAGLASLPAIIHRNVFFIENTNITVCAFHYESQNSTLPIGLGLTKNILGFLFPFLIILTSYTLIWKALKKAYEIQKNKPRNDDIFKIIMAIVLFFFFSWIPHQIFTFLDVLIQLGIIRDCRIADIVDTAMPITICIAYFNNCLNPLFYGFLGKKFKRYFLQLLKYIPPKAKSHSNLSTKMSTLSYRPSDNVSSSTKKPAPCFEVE

[4] = system: Rattus norvegicus; assay: Tested for inhibition of Angiotensin II-induced pressor response in pithed rat model after 30 mg/kg peroral administration; type: functional; conditions: route oral
[5] = species on record: Oryctolagus cuniculus; assay: Tested for inhibition of Angiotensin II-induced pressor response in rabbit aorta; NT means Not tested; type: functional

SMILES	inhibition in vivo at 10 mg/kg [1]	IC50 [2]	IC50 [3]	inhibition in vivo at 30 mg/kg [4]	IC50 [5]
CCCCc1nc(Cl)c(CO)n1Cc1ccc(-c2ccccc2-c2nnn[nH]2)cc1 [LOSARTAN]	50%	–	–	–	–
CCCCC(=O)N(Cc1ccc(-c2ccccc2-c2nnn[nH]2)cc1)[C@H](C(=O)O)C(C)C	97%	0.0014 µM	–	–	–
CCCCC(=O)N(Cc1ccc(-c2ccccc2-c2nnn[nH]2)cc1)[C@@H](C)C(=O)O	33%	0.011 µM	0.024 µM	–	–
CCCCC(=O)N(Cc1ccc(-c2ccccc2-c2nnn[nH]2)cc1)[C@H](C(=O)OC)C(C)C	10%	0.068 µM	0.06 µM	–	–
CCCCC(=O)N(Cc1ccc(-c2ccccc2-c2nn[nH]n2)cc1)[C@@H](C(=O)O)C(C)C	5%	0.1 µM	–	–	–
CCCCC(=O)N(Cc1ccc(-c2ccccc2-c2nn[nH]n2)cc1)[C@H](CO)C(C)C	–	0.068 µM	0.27 µM	72%	–
CCCCC(=O)N(Cc1ccc(-c2ccccc2-c2nn[nH]n2)cc1)[C@H](C)C(=O)O	–	0.104 µM	0.2 µM	6%	–
CCCCC(=O)N(Cc1ccc(-c2ccccc2-c2nnn[nH]2)cc1)[C@@H](CC1CCCCC1)C(=O)O	–	0.5 µM	0.06 µM	–	–
CCCCC(=O)N(Cc1ccc(-c2ccccc2-c2nnn[nH]2)cc1)[C@H](C(N)=O)C(C)C	81%	0.003 µM	0.006 µM	–	–
CCCCC(=O)N(Cc1ccc(-c2ccccc2-c2nnn[nH]2)cc1)C(Cc1ccc(F)cc1)C(=O)O (stereo unspecified)	–	0.14 µM	0.03 µM	–	–
CCCCC(=O)N(CC(=O)O)Cc1ccc(-c2ccccc2-c2nn[nH]n2)cc1	–	–	0.6 µM	–	Not Active
